# Experimental data taken from US20250011285A1, “CYP11A1 INHIBITORS” (ORION CORPORATION, priority 2021, published 2025).
# Target: T1, CYP11A1 (Homo sapiens, UniProt P05108)
# T1 construct: human H295R adrenocortical carcinoma cell line was used as source of enzyme; endogenous in cells; host or cells: H295R human adrenocortical carcinoma cells
# T1 sequence (P05108 40-521): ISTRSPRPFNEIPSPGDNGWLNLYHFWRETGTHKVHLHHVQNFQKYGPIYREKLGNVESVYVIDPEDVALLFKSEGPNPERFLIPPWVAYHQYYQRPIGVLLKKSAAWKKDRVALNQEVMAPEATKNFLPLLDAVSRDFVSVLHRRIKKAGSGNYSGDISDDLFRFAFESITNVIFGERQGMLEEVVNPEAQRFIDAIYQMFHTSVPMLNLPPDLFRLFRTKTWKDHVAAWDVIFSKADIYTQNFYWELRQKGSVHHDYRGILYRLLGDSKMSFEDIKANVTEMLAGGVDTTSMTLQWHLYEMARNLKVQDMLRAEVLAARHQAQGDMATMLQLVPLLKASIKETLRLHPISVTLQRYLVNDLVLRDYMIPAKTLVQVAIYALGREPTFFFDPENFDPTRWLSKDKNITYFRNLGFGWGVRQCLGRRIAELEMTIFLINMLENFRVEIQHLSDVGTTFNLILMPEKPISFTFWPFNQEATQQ
# Experiment: CYP11A1 inhibition, isocaproic acid release assay (IARA) in H295R cells
# Type: cell-based
# Conditions: human H295R adrenocortical carcinoma cells treated three days, 3 nM [24,25-3H]-labelled cholesterol, 1% DMSO; read-out: IC50 on CYP11A1 inhibition (Group)
# Description: The ability of the test compounds to inhibit conversion of cholesterol to pregnenolone and isocaproic acid was measured by modification of isocaproic acid release assay (IARA) described by Ruangwises et al. (Biology of Reproduction 1991; 45(1):143-50) except that human H295R adrenocortical carcinoma cell line was used as source of enzyme and extraction was done with dextran-coated charcoal suspension (Isomaa, V. et al., Endocrinology 1982; 111(3):833-843). […] To determine the half maximal inhibitory concentration (IC50) of the test compounds on CYP11A1 inhibition, the cells were treated for three days with increasing concentrations of the test compounds in the presence of 3 nM [24,25-3H]-labelled cholesterol (American Radiolabelled Chemicals).
# The final DMSO concentration was 1%. Cell culture medium was extracted with dextran-coated charcoal suspension and the radiolabelled isocaproic acid was determined by mixing 100 μl of supernatant fraction in 200 μl of scintillation fluid (OptiPhase SuperMix, Perkin Elmer). Radioactivity was measured using a Microbeta scintillation counter (1450 MicroBeta Trilux, Wallac). All the test compounds were studied at 10 concentrations in duplicates.
row,SMILES,IC50
1,"COC(=O)c1ccc(COc2ccc(CN3Cc4ccccc4C3)cc2OC)cc1 [Compound 1, Methyl 4-((4-(isoindolin-2-ylmethyl)-2-methoxyphenoxy)methyl) benzoate]",351 to 1500 nM
2,"CN(C)C(=O)c1ccc(COc2ccc(CN3Cc4ccccc4C3)cc2O)cc1 [Compound 5, 4-((2-Hydroxy-4-(isoindolin-2-ylmethyl)phenoxy)methyl)-N,N-dimethyl-benzamide]",151 to 350 nM
3,"COCc1cc(CN2Cc3ccccc3C2)ccc1OCc1ccc(C(=O)N(C)C)cc1 [Compound 10, 4-((4-(Isoindolin-2-ylmethyl)-2-(methoxymethyl)phenoxy)methyl)-N,N-di-methylbenzamide]",151 to 350 nM
4,"CN(C)C(=O)c1ccc(COc2ccc(CN3Cc4ccccc4C3)cc2C#N)cc1 [Compound 6, 4-((2-Cyano-4-(isoindolin-2-ylmethyl)phenoxy)methyl)-N,N-dimethylbenzamide]",< 150 nM
5,"COC(=O)c1ccc(COc2ccc(CN3Cc4ccccc4C3)cc2)cc1 [Compound 2, Methyl 4-((4-(isoindolin-2-ylmethyl)phenoxy)methyl)benzoate]",351 to 1500 nM
6,"COc1cc(CN2Cc3ccccc3C2)ccc1OCc1ccc(C(=O)N(C)CCOC(C)=O)cc1 [Compound 36, 2-(4-((4-(Isoindolin-2-ylmethyl)-2-methoxyphenoxy)methyl)-N-methyl-benzamido)ethyl acetate]",151 to 350 nM
7,"CN(C)C(=O)c1ccc(COc2cc(F)c(CN3Cc4ccccc4C3)c(F)c2)cc1 [Compound 25, 4-((3,5-Difluoro-4-(isoindolin-2-ylmethyl)phenoxy)methyl)-N,N-dimethyl-benzamide]",151 to 350 nM
8,"COCCN(C)C(=O)c1ccc(COc2ccc(CN3Cc4ccccc4C3)cc2OC)cc1 [Compound 35, 4-((4-(Isoindolin-2-ylmethyl)-2-methoxyphenoxy)methyl)-N-(2-methoxyethyl)-N-methylbenzamide]",< 150 nM
9,"COc1cc(CN2Cc3ccccc3C2)ccc1OCc1ccc(C(=O)N(C)C)cc1 [Compound 3, 4-((4-(Isoindolin-2-ylmethyl)-2-methoxyphenoxy)methyl)-N,N-dimethyl-benzamide]",< 150 nM

# Next, values leading:
row,IC50,SMILES
1,351 to 1500 nM,"CN(C)C(=O)c1ccc(COc2ccc(CN3Cc4ccccc4C3)cc2NS(C)(=O)=O)cc1 [Compound 53, 4-((4-(Isoindolin-2-ylmethyl)-2-(methylsulfonamido)phenoxy)methyl)-N,N-dimethylbenzamide]"
2,351 to 1500 nM,"CS(=O)(=O)N1CCC(COc2ccc(CN3Cc4ccccc4C3)c3ncoc23)CC1 [Compound 46, 4-(Isoindolin-2-ylmethyl)-7-((1-(methylsulfonyl)piperidin-4-yl)methoxy)-benzo[d]oxazole]"
3,351 to 1500 nM,"CN(C)C(=O)c1cc(CN2Cc3ccccc3C2)ccc1OCc1ccc(S(C)(=O)=O)cc1 [Compound 17, 5-(Isoindolin-2-ylmethyl)-N,N-dimethyl-2-((4-(methylsulfonyl)benzyl)oxy)-benzamide]"
4,< 150 nM,"CS(=N)(=O)c1ccc(COc2ccc(CN3Cc4ccccc4C3)cc2C#N)cc1 (stereo not drawn) [Compound 33, 5-(isoindolin-2-ylmethyl)-2-((4-(S-methylsulfonimidoyl)benzyl)oxy)benzonitrile]"
5,< 150 nM,"COc1c(OCc2ccc(S(C)(=O)=O)cc2)ccc(CN2Cc3ccccc3C2)c1F [Compound 21, 2-(2-Fluoro-3-methoxy-4-((4-(methylsulfonyl)benzyl)oxy)benzyl)isoindoline]"
6,351 to 1500 nM,"COc1cc(OCc2ccc(C(=O)N(C)C)cc2)ccc1CN1Cc2ccccc2C1 [Compound 31, 4-((4-(Isoindolin-2-ylmethyl)-3-methoxyphenoxy)methyl)-N,N-dimethyl-benzamide]"
7,< 150 nM,"CS(=O)(=O)N1CCC(COc2ccc(CN3Cc4ccccc4C3)c3cccnc23)CC1 [Compound 51, 5-(Isoindolin-2-ylmethyl)-8-((1-(methylsulfonyl)piperidin-4-yl)methoxy)-quinoline]"
8,< 150 nM,"COCCS(=O)(=O)c1ccc(COc2ccc(CN3Cc4ccccc4C3)cc2COC)cc1 [Compound 20, 2-(4-((4-((2-Methoxyethyl)sulfonyl)benzyl)oxy)-3-(methoxymethyl)benzyl)-isoindoline]"
9,< 150 nM,"CS(=O)(=O)N1CCC(COc2ccc(CN3Cc4ccccc4C3)c3cn[nH]c23)CC1 [Compound 38, 4-(Isoindolin-2-ylmethyl)-7-((1-(methylsulfonyl)piperidin-4-yl)methoxy)-1H-indazole]"
10,151 to 350 nM,"CS(=O)(=O)c1ccc(COc2ccc(CN3Cc4ccccc4C3)cc2C#N)cc1 [Compound 16, 5-(Isoindolin-2-ylmethyl)-2-((4-(methylsulfonyl)benzyl)oxy)benzonitrile]"
11,< 150 nM,"CCS(=O)(=O)c1ccc(COc2ccc(CN3Cc4ccccc4C3)cc2C(C)=O)cc1 [Compound 43, 1-(2-((4-(Ethylsulfonyl)benzyl)oxy)-5-(isoindolin-2-ylmethyl)phenyl)ethan-1-one]"
12,< 150 nM,"CN(C)C(=O)c1ccc(COc2ccc(CN3Cc4ccccc4C3)c3cccnc23)cc1 [Compound 41, 4-(((5-(Isoindolin-2-ylmethyl)quinolin-8-yl)oxy)methyl)-N,N-dimethyl-benzamide]"
